Where a name gives a salt, the structure may show the parent alone.
What was measured:
Type in all cases: cell-based
[1] = test system: human leukocytes (basophils); assay: Inhibition of histamine release from human leukocytes (basophils), Procedure A; details: Leukocyte, 1 h, rabbit anti-human IgE, 37° C., 60 minutes, (d) No response detected at highest dose indicated, read-out: In Vitro Inhibition of Histamine Release IC50, Procedure A
Description: A. Procedure for Determining Inhibition of Histamine Release from Human Leukocytes (Basophils) 1. Separation of Leukocytes: A modification of the method of L. Lichtenstein and A. Osler, J. Exp. Med. 120, 507 (1964) is used. Heparinized human blood (80-100 ml) is mixed with 20 ml of saline (0.2%) containing 0.6 gm of dextrose and 1.2 gm dextran in propylene centrifuge tubes. The mixture is kept at ambient temperature for 60-90 minutes to allow the separation of erythrocytes from the platelet-leukocyte-rich supernate. The supernate is removed and centrifuged for 8 minutes at 110×g in cold. The leukocyte pellet is washed twice with Tris buffer and finally suspended in 150-180 ml Tris-ACM buffer at 1-2×10^6 cells/ml. 2. Reaction Mixture: The reaction is carried out in 12×75 mm plastic tubes at a total volume of […]. The reaction medium includes 0.05 ml rabbit anti-human IgE (the antigen), 0.2 ml of the test compound in water at concentrations ranging from 10-100 μM, and 0.1 ml of the leukocyte suspension. The reaction mixture is incubated in a 37° C. shaking water bath for 60 minutes. Upon completion of the reaction, the tubes are centrifuged and the supernatants collected. The protein is removed from the supernatants by precipitation with 0.2 ml of 8% perchloric acid. 3. Histamine Assay: Histamine release is measured by the automated fluorometric method of W. Siraganian and W. Hook in Chapter 102 of the Manual of Clinical Immunology, 2nd Edition, edited by R. Rose and H. Friedman, published by the American Society for Microbiology, Washington, D.C. 1980. Percent inhibition is calculated as follows: [formula] The concentration which causes a 50 percent inhibition (IC50) of histamine release is interpolated from a plot of percent inhibition versus logarithm of drug concentration.

[2] = test system: rat peritoneal mast cells; assay: Inhibition of histamine release from rat peritoneal mast cells, Procedure B; details: Mast cell, 1 h, sheep anti-rat IgE or ovalbumin, 37° C., 60 minutes, (d) No response detected at highest dose indicated, read-out: In Vitro Inhibition of Histamine Release IC50, Procedure B
Description: B. Procedure for Determining Inhibition of Histamine Release from Rat Peritoneal Mast Cells 1. Harvest of Peritoneal Mast Cells: After the rats are sacrificed with ether, 20 ml of Minimum Essential Medium (MEM) containing 20 units/ml heparin is injected into the peritoneum. The abdomen is massaged for one minute and the lavage fluid collected. The peritoneal cells are centrifuged at 1800 rpm for 8 minutes in cold. After two washes with Tris A buffer, the cells are resuspended in Tris ACM buffer at 2-4×10^6 cells/ml. 2. Reaction Mixture: The reaction is carried out in 12×75 mm plastic tubes at a total volume of 1.25 ml. The reaction mixture includes 0.5 ml (10-1000 μg) sheep anti-rat IgE or ovalbumin, 0.2 ml of the test compound in water at concentrations ranging from 10-1000 μM, […] phosphatidylserine solution (20-60 μg to each tube), and 0.5 ml of cell suspension. The reaction mixture is incubated in a 37° C. shaking water bath for 60 minutes. Upon completion of the reaction, the tubes are centrifuged and the supernatants collected. The protein is removed from the supernatants by precipitation with 0.2 ml of 8% perchloric acid. 3. Histamine Assay: Histamine release is measured by the automated fluorometric method of Siraganian, supra. The concentration which causes a 50% inhibition (IC50) of histamine release is computed as in Part A.

guinea pig basophils = assay: Inhibition of histamine release from guinea pig basophils, Procedure C; details: Cavia porcellus, 1 h, ovalbumin-sensitized, 37° C., 60 minutes, read-out: In Vitro Inhibition of Histamine Release IC50, Procedure C
Description: C. Procedure for Determining Inhibition of Histamine Release from Guinea Pig Basophils 1. In Vivo Sensitization: Male Hartley guinea pigs (200-300 gms) are immunized on day 0 with two 0.05 ml intradermal injections of 200 μg ovalbumin. Sensitized basophils are available between days 13-25 post-sensitization. This mode of sensitization favors IgE response. 2. Separation of Leukocytes: The method of Lett-Brown et al., Int. Arch. Allergy, Appl. Immun. 64, 241 (1981) is used. Animals are anesthetized with ether and are bled via cardiac puncture with plastic syringes containing sufficient EDTA to provide a final concentration of 10 mM. One part of 3% gelatin in saline at 37° C. is mixed with two parts of blood in a 16×150 mm tube. The cells are allowed to sediment at a 30° angle for 45 minutes in a 37° C. water bath. The leukocyte-rich plasma is collected and centrifuged at 150×g for 30 minutes at room temperature. The pelleted cells are washed in Hepes-buffered saline (HG) containing 4 mM EDTA and resuspended in Hepes-buffered saline containing Mg^++ and Ca^++ (HGCM) at 4-5×10^6 cells/ml. 3. Reaction Mixture: The reaction is carried out in 12×75 mm plastic tubes and a total volume of 1.2 ml which includes 0.5 ml of antigen, 0.2 ml of drug solution at concentrations ranging from 10-1000 μM and 0.5 ml of prewashed cell suspension. The reaction mixture is incubated in a 37° C. shaking water bath for 60 minutes. Upon completion of the reaction, the tubes are centrifuged and the supernatants collected. The protein is removed from the supernatants by precipitation with 0.2 ml of 8% perchloric acid. 4. Histamine Assay: Histamine release is measured by the automated fluorometric method of Siraganian, supra. The concentration which causes a 50 percent inhibition of Histamine release is computed as in Part A.

Row | IC50 [1] [µM] | IC50 [2] [µM] | SMILES | IC50 (guinea pig basophils) [µM]
1 | 12 | 80 | OC(CN1CCN(Cc2ccc(Cl)cc2)CC1)CN1CCN(Cc2ccc(Cl)cc2)CC1 [Example 2, 1,3-Bis[4-(4-chlorobenzyl)-1-piperazinyl]-2-hydroxypropane] | 23
2 | 28 |  | c1ccc(CCN2CCN(CCCN3CCN(CCc4ccccc4)CC3)CC2)cc1 [Example 14, 1,3-Bis(4-phenethyl-1-piperazinyl)propane dihydrochloride dihydrate] | 
3 | 6 | 9 | Clc1ccc(CN2CCCN(CCCN3CCCN(Cc4ccc(Cl)cc4)CC3)CC2)cc1 [Example 28, 1,3-Bis[4-(4-chlorobenzyl)-1-homopiperazinyl]propane tetrahydrochloride] | 2.3
4 | 800 |  | O=C(CN1CCN(CCCN2CCN(CC(=O)c3ccccc3)CC2)CC1)c1ccccc1 [Example 12, 1,3-Bis(4-phenacyl-1-piperazinyl)propane tetrahydrochloride monohydrate] | 
5 | 3 | > 100 | Clc1ccc(CCN2CCN(CCCN3CCN(CCc4ccc(Cl)cc4)CC3)CC2)cc1 [Example 16, 1,3-Bis[4-(4-chlorophenethyl)-1-piperazinyl]propane] | 12
6 | 45 |  | Fc1ccc(CN2CCN(CCCN3CCN(Cc4ccc(F)cc4)CC3)CC2)cc1 [Example 5, 1,3-Bis[4-(4-fluorobenzyl)-1-piperazinyl]propane tetrahydrochloride] | 760
7 | 14 |  | Clc1cccc(CN2CCN(CCCN3CCN(Cc4cccc(Cl)c4)CC3)CC2)c1 [Example 23, 1,3-Bis[4-(3-chlorobenzyl)-1-piperazinyl]propane dihydrochloride monohydrate] | 
8 | 53 |  | c1ccc(CN2CCN(CCCN3CCN(Cc4ccccc4)CC3)CC2)cc1 [Example 4, 1,3-Bis(4-benzyl-1-piperazinyl)propane tetrahydrochloride] | 
9 | 4 |  | CC(CCN1CCN(Cc2ccc(Cl)cc2)CC1)N1CCN(Cc2ccc(Cl)cc2)CC1 (stereo not shown) [Example 7, 1,3-Bis[4-(4-chlorobenzyl)-1-piperazinyl]-1-methylpropane tetrahydrochloride hemihydrate] | 
10 | > 1000 |  | Oc1ccc(CN2CCN(CCCN3CCN(Cc4ccc(O)cc4)CC3)CC2)cc1 [Example 26, 1,3-Bis[4-(4-hydroxybenzyl)-1-piperazinyl]propane] | 
11 | > 1000 | > 100 | Clc1ccc(C(c2ccccc2)N2CCN(CCCN3CCN(C(c4ccccc4)c4ccc(Cl)cc4)CC3)CC2)cc1 (stereo not shown) [Example 8, 1,3-Bis[4-(4-chlorobenzhydryl)-1-piperazinyl]-propane dihydrochloride dihydrate] | 
12 | 3 |  | Brc1ccc(CN2CCN(CCCN3CCN(Cc4ccc(Br)cc4)CC3)CC2)cc1 [Example 27, 1,3-Bis[4-(4-bromobenzyl)-1-piperazinyl]propane tetrahydrochloride] | 
13 | 20 |  | OC(CN1CCN(CCCN2CCN(Cc3ccc(Cl)cc3)CC2)CC1)c1ccccc1 (stereo not shown) [Example 11, 1-[4-(4-Chlorobenzyl)-1-piperazinyl]-3-[4-(2-hydroxy-2-phenylethyl)-1-piperazinyl]propane tetrahydrochloride] | 
14 | 3 |  | O=C(CN1CCN(CCCN2CCN(Cc3ccc(Cl)cc3)CC2)CC1)c1ccccc1 [Example 10, 1-[4-(4-Chlorobenzyl)-1-piperazinyl]-3-(4-phenacyl-1-piperazinyl)propane tetrahydrochloride monohydrate] | 
15 | ~1000 |  | OC(CN1CCN(CCCN2CCN(CC(O)c3ccccc3)CC2)CC1)c1ccccc1 (stereo not shown) [Example 13, 1,3-Bis[4-(2-phenyl-2-hydroxyethyl)-1-piperazinyl]propane tetrahydrochloride] | 
16 | 80 |  | CC(c1ccccc1)N1CCN(CCCN2CCN(C(C)c3ccccc3)CC2)CC1 (stereo not shown) [Example 17, 1,3-Bis[4-(1-phenylethyl)-1-piperazinyl]-propane tetrahydrochloride] | 
17 | 12 |  | O=C(CCN1CCN(Cc2ccc(Cl)cc2)CC1)N1CCN(Cc2ccc(Cl)cc2)CC1 [Example 6, 1,3-Bis[4-(4-chloro-benzyl)-1-piperazinyl]-1-oxo-propane trihydrochloride] | 
18 | 20 |  | Cc1ccc(CN2CCN(CCCN3CCN(Cc4ccc(C)cc4)CC3)CC2)cc1 [Example 22, 1,3-Bis[4-(4-methylbenzyl)-1-piperazinyl]-propane tetrahydrochloride] | 
19 | 3 |  | Clc1ccc(CN2CCN(CCCN3CCN(Cc4ccc(Cl)c(Cl)c4)CC3)CC2)cc1Cl [Example 20, 1,3-Bis[4-(3,4-dichlorobenzyl)-1-piperazinyl]-propane tetrahydrochloride] | 
20 | 1000 |  | CC1C(C)N(Cc2ccc(Cl)cc2)C(C)C(C)N1CCCN1C(C)C(C)N(Cc2ccc(Cl)cc2)C(C)C1C (stereo not shown) [Example 32, 1,3-bis[4-(4-chlorobenzyl)-2,3,5,6-tetramethyl-1-piperazinyl]propane tetrahydrochloride] | 
21 | 14 |  | Clc1ccccc1CN1CCN(CCCN2CCN(Cc3ccccc3Cl)CC2)CC1 [Example 21, 1,3-Bis[4-(2-chlorobenzyl)-1-piperazinyl]propane tetrahydrochloride] | 
22 | 24 |  | Clc1ccc(CN2CCN(CCCCN3CCN(Cc4ccc(Cl)cc4)CC3)CC2)cc1 [Example 3, 1,4-Bis[4-(4-chlorobenzyl)-1-piperazinyl]butane hemihydrate] | 
23 | 2 |  | Clc1ccc(CCCCN2CCN(CCCN3CCN(CCCCc4ccc(Cl)cc4)CC3)CC2)cc1 [Example 29, 1,3-Bis[4-(4-{4-chlorophenyl}butyl)-1-piperazinyl]propane tetrahydrochloride] | 
24 | 6 |  | FC(F)(F)c1cc(CN2CCN(CCCN3CCN(Cc4ccc(Cl)c(C(F)(F)F)c4)CC3)CC2)ccc1Cl [Example 25, 1,3-Bis[4-(4-chloro-3-trifluoromethylbenzyl)-1-piperazinyl]propane tetrahydrochloride] | 

Row | SMILES | IC50 [1] [µM] | IC50 [2] [µM] | IC50 (guinea pig basophils) [µM]
25 | CC(=O)Oc1ccc(CN2CCN(CCCN3CCN(Cc4ccc(OC(C)=O)cc4)CC3)CC2)cc1 [Example 30, 1,3-Bis[4-(4-acetoxybenzyl)-1-piperazinyl]propane] | > 1000 |  | 
26 | CCCCOc1ccc(CN2CCN(CCCN3CCN(Cc4ccc(OCCCC)cc4)CC3)CC2)cc1 [Example 31, 1,3-Bis[4-(4-butoxybenzyl)-1-piperazinyl]propane tetrahydrochloride] | 4 |  | 

From patent US4725597A, “Bis(piperazinyl or homopiperazinyl)alkanes” (Boehringer Ingelheim Ltd., priority 1984, dated 1988)
